Test results: US20240101538A1, “PROTEIN-PROTEIN INTERACTION MODULATORS OF AURORA KINASE A AND THEIR USE IN THE PREVENTION AND/OR TREATMENT OF CANCER” (EBERHARD KARLS UNIVERSITÄT TÜBINGEN, priority 2020, published 2024)
Where two headings read alike, the source gives them in different places.

How the values were obtained:
[1] = tested on: NMP53^−/− cells; experiment: Colony formation assay on NMP53^−/− cells; assay type: cell-based, murine; conditions: for minimal effective concentration: Mus musculus, 120 h, 5 days, read-out: EC (NMP53^−/−)
Description: To evaluate the effect of small molecules equipped with R-spine interacting moieties, the inventors screened a focused library of proprietary p38a MAP-Kinase inhibitors which were equipped with R-spine interacting pharmacophores. To this end, the inventors utilized a screening system as developed in Dauch et al.^2 The screening system is based on colony formation assays of cell lines isolated from Nras-driven, Trp53-deficient murine HCCs, whose development is dependent on MYC (NMP53^−/− cells), as well as Nras-driven, Cdkn2a^ARF-deficient murine HCCs, which develop independently of MYC (NMCdkn2a^ARF−/− cells). Importantly, NMP53^−/− cells are sensitive to AURKA inhibitors, which induce a conformational shift in AURKA, whereas NMCdkn2a^ARF−/− are not sensitive to such compounds.
For Colony Formation Assays, cells were seeded at a density of 50 000 cells per 6 well and next day treated with a 2-fold dilution series of the indicated compounds or the highest corresponding DMSO concentration as control. After 5 days, the cells were fixed with a 10% formaldehyde solution for 30 min, washed once with water, stained with a 0.5% crystal violet solution for 30 min and washed twice with water. The compounds effective concentration (EC) was determined according to the lowest concentration in the dilution series, that inhibited cell growth substantially. The resulting benzamide containing hit structure 1, with a twofold selectivity towards NMP53^−/− cells (effective concentration on NMP53^−/− cells (EC): 2 μM, EC on Cdkn2a^ARF−/−: 4 μM, FIG. 1), served as the inventors' starting point for further compound development.

[2] = tested on: NMP53^−/− cells; experiment: Cell viability assay (XTT-Assay); assay type: cell-based, murine; conditions: 3 days treatment, read-out: cellular IC50
Method: (A) Colony formation assay of a tumor cell line (NMP53^−/− cells), incubated for 5 days with compound 3a [N-(2-fluoro-5-((4-(1-methyl-1H-pyrazole-4-yl)benzyl)amino)phenyl)-3-(furan-2-yl)-propanamide] as indicated, fixed and stained with crystal violet. (B) Viability measurement (XTT assay) of a tumor cell line (NMP53^−/− cells) treated for 3 days with a series of concentrations of compound 3a according to this invention. […] (C) Determination of the percentage of cell death (by means of propidium iodide staining) of a tumor cell line (NMP53^−/− cells) treated with compound 3a for 5 days.
The cell viability assay (XTT-Assay) was used to determine cellular IC50 values. 1 000 cells were seeded per 96 well and treated with a 2-fold dilution series of the compounds on the next day. As a control, the cells were treated with DMSO according to the highest compound concentration (negative control) or 1.5 mM chloroquine (positive control). 3 days after treatment with the respective compound, or DMSO/chloroquine as a control, the XTT Assay was conducted according to the manufacturer's instructions (Invitrogen, X6493). The absorbance was measured with the Infinite M Plex plate reader (Tecan) at 450 nm. The IC50 was calculated by variable slope nonlinear regression utilizing GraphPad Prism 8.4.0 software (GraphPad Software, La Jolla, CA), with the DMSO treated cells resembling 100% cell viability and the chloroquine treated cells resembling o % cell viability.

[3] = biological target: Aurora A (Homo sapiens (Human), UniProt O14965); experiment: ADP-Glo Kinase Assay with Aurora A Kinase Enzyme System; assay type: biochemical; conditions: compounds tested from 1 μM
Aurora A, sequence (O14965 whole entry): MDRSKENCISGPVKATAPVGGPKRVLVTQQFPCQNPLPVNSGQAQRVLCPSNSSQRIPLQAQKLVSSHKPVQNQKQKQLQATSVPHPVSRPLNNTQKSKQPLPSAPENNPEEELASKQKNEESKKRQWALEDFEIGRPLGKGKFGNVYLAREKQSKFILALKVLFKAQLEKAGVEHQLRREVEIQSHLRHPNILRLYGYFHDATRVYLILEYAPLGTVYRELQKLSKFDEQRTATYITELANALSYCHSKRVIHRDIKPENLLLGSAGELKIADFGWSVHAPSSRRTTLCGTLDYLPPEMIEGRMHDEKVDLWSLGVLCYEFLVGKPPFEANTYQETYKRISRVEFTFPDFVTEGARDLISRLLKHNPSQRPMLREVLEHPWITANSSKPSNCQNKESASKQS
Method: To measure the effect of the compounds on the activity of AURKA, the IC50 of the compounds was determined with the ADP-Glo™ Kinase Assay (Promega, V9101) and the Aurora A Kinase Enzyme System (Promega, V1931). The assay was performed according to the manufacturer's instructions in a white 384-well plate format (Corning Assay Plate, LOT 32216024) by using 1.4 ng/μl Aurora A, […] and 0.1 μg/μl myelin basic protein (MBP) substrate in a total volume of 6 μl (transferred with Integra viaflo 96/384 handheld channel pipette). To generate a dose-response curve, a 3-fold serial dilution of the compounds was tested starting from 1 μM. The kinase was pre-incubated for 10 min at RT with the respective compound, before the substrate mix containing MBP and ATP was added. After 60 min at RT, 6 μl of the ADP-Glo reagent were added and incubated for another 60 min at RT. Afterwards 12 μl of the detection reagent were added and incubated for 30 min at RT before the luminescence was measured with an integration time of 500 ms by using a Filter Max F5 multi-mode microplate reader from Molecular Devices. As a negative control, the reaction was performed with MBP, ATP and Aurora A only. […]

[4] = tested on: MYC; experiment: Western blot analysis of cellular MYC levels in NMP53^−/− cells; assay type: cell-based, murine; conditions: 8 h after treatment with increasing concentrations
Method: A. Western blot analysis of MYC and AURKA in tumor cells (NMP53/cells) 8 h after treatment with increasing concentrations of compound 2c [N-(5-((4-(1H-pyrazole-4-yl)benzyl)amino)-2-fluorophenyl)-3-(furan-2-yl)propanamide]. Vinculin served as loading control (n=2) B. Western blot analysis of MYC and AURKA in tumor cells (NMP53^−/− cells) 8 h after treatment with increasing concentrations of compound 3a [N-(2-fluoro-5-((4-(1-methyl-1H-pyrazole-4-yl)benzyl)amino)phenyl)-3-(furan-2-yl)propanamide]. Vinculin served as loading control (n=2). […]
For western blot analysis, 2×10^6 cells were seeded per 10 cm dish and next day treated with the indicated compound concentrations. […] After addition of 4× Laemmli buffer (200 mM Tris-HCl pH 6.8, 8% SDS, 4% (3-mercaptoethanol, 40% glycerol, 0.33% bromophenol blue) the lysates were boiled for 5 min at 95° C. For western blot analysis, proteins were separated by SDS-polyacrylamide electrophoresis (using 25 μg of each sample) and transferred onto PVDF Immobilon-P membranes (Millipore). The blots were incubated with antibodies specific to MYC (Abeam ab32072, 1:1 000), AURKA (Abeam ab13824, 1:1 000) and Vinculin (Sigma Aldrich V9131-2 mL 1:10 000), followed by peroxidase-conjugated secondary antibodies. Proteins were detected by ChemiDoc MP Imaging System (Bio-Rad) using Clarity Western ECL Substrate (Bio-Rad).

[5] = colony formation assay, lowest concentration of 2-fold dilution series that inhibited cell growth substantially

SMILES | minimal effective concentration [1, 5] [µM] | minimal effective concentration ([1]; colony formation assay) [µM] | IC50 [2] [nM] | IC50 ([2]; Mus musculus, 72 h) [nM] | IC50 (AURKA) [3] | MYC levels [4] | higher cellular activity compared to the initial hit 1 ([1]; EC on NMP53^−/− cells) | increased efficacy compared to compound 2a ([1]; EC on NMP53^−/− cells) [fold] | selectivity for NMP53^−/− cells ([1]; NMP53^−/− versus NMCdkn2a^ARF−/− cells, colony formation assay) | IC50 ([3]; read-out: IC50 (AURKA)) [nM]
Cn1cc(-c2ccc(CNc3ccc(F)c(NC(=O)CCc4ccco4)c3)cc2)cn1 [Compound 3a, N-(2-fluoro-5-((4-(1-methyl-1H-pyrazole-4-yl)benzyl)amino)phenyl)-3-(furan-2-yl)propanamide] | 0.031 | 0.031 | 13 | 14 | no kinase inhibition | reduced in a concentration dependent manner |  |  |  | 
O=C(CCc1ccco1)Nc1cc(NCc2ccc(-c3cn[nH]c3)cc2)ccc1F [Compound 2c, N-(5-((4-(1H-pyrazole-4-yl)benzyl)amino)-2-fluorophenyl)-3-(furan-2-yl)propanamide] | 0.125 | 0.125 |  | 60 |  | reduced in a concentration dependent manner | up to 16 fold | 4 | up to 8 fold | 259
